Reference: publication PMC9366271 (Journal of medicinal chemistry, 2018)
“Also recorded” adds a separate entry of the source.

How the values were obtained:
D2R [1] = target: D2R (Ovis aries, UniProt A0ACI6R699); format: binding, sheep
D2R [2] = target: D2R (Homo sapiens, UniProt P14416); test: Dynamic mass redistribution; format: cell-based; conditions: 500 nM bivalent compounds or 1 μM spiperone for 30 min, then 100 nM sumanirole
Chain of D2R (Homo sapiens, UniProt P14416) (P14416 whole entry): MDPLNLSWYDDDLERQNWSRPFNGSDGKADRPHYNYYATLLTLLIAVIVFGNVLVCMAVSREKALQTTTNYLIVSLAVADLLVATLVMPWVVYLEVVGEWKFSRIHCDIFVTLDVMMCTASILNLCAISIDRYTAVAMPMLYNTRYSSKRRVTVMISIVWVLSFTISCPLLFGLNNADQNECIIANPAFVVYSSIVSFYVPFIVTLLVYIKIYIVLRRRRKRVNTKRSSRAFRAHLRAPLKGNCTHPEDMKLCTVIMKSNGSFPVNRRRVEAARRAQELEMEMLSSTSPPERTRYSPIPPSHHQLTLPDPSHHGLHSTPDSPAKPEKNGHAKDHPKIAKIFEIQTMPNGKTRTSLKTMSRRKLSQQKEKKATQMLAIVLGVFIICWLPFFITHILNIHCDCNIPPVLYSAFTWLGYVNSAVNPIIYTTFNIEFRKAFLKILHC

Structure (SMILES)	effect of TAT-TM6 peptides on binding (D2R [1]; TAT-TM6 peptides of D2R and A2AR, native tissue)	magnitude of the signaling by sumanirole in presence of ligand (DMR) (D2R [2])	decrease of binding by disturber peptide TAT-TM6 (D2R [1]; TAT-TM6 of D2R vs no peptide) [fold]
COC(=O)CN(CC(=O)NCCOCCOCCNC(C)=O)CC(=O)NCCOCCOCCNC(=O)CCC(=O)Nc1ccc(CCN2CN(c3ccccc3)C3(CCN(CCCC(=O)c4ccc(F)cc4)CC3)C2=O)cc1 [Compound 15, Methyl 3-(2,13-dioxo-6,9-dioxa-3,12-diazatetradecyl)-19-((4-(2-(8-(4-(4-fluorophenyl)-4-oxobutyl)-4-oxo-1-phenyl-1,3,8-triazaspiro[4.5]decan-3-yl)ethyl)phenyl)amino)-5,16,19-trioxo-9,12-dioxa-3,6,15-triazanonadecanoate]	had no effect; also recorded: Neither TAT-TM6 peptide of D2R nor A2R influenced the binding	–	–
COC(=O)CN(CC(=O)NCCOCCOCCNC(=O)CCC(=O)Nc1ccc(CCN2CN(c3ccccc3)C3(CCN(CCCC(=O)c4ccc(F)cc4)CC3)C2=O)cc1)CC(=O)NCCOCCOCCNC(=O)CCC(=O)Nc1ccc(CCN2CN(c3ccccc3)C3(CCN(CCCC(=O)c4ccc(F)cc4)CC3)C2=O)cc1 [Compound 13, Methyl 19-((4-(2-(8-(4-(4-fluorophenyl)-4-oxobutyl)-4-oxo-1-phenyl-1,3,8-triazaspiro[4.5]decan-3-yl)ethyl)phenyl)amino)-3-(16-((4-(2-(8-(4-(4-fluorophenyl)-4-oxobutyl)-4-oxo-1-phenyl-1,3,8-triazaspiro[4.5]decan-3-yl)ethyl)phenyl)amino)-2,13,16-trioxo-6,9-dioxa-3,12-diazahexadecyl)-5,16,19-trioxo-9,12-dioxa-3,6,15-triazanonadecanoate]	–	significantly decreased	52
COC(=O)CN(CC(=O)NCCCOCCOCCOCCCNC(=O)CCC(=O)Nc1ccc(CCN2CN(c3ccccc3)C3(CCN(CCCC(=O)c4ccc(F)cc4)CC3)C2=O)cc1)CC(=O)NCCCOCCOCCOCCCNC(=O)CCC(=O)Nc1ccc(CCN2CN(c3ccccc3)C3(CCN(CCCC(=O)c4ccc(F)cc4)CC3)C2=O)cc1 [Compound 12, Methyl 24-((4-(2-(8-(4-(4-fluorophenyl)-4-oxobutyl)-4-oxo-1-phenyl-1,3,8-triazaspiro[4.5]decan-3-yl)ethyl)phenyl)amino)-3-(21-((4-(2-(8-(4-(4-fluorophenyl)-4-oxobutyl)-4-oxo-1-phenyl-1,3,8-triazaspiro[4.5]decan-3-yl)ethyl)phenyl)amino)-2,18,21-trioxo-7,10,13-trioxa-3,17-diazahenicosyl)-5,21,24-trioxo-10,13,16-trioxa-3,6,20-triazatetracosanoate]	–	significantly decreased	–
O=C(CCCN1CCC2(CC1)C(=O)NCN2c1ccccc1)c1ccc(F)cc1 [spiperone, reference compound]	–	significantly decreased	–
